Measured values taken from ChEMBL document CHEMBL1201862, “PubChem BioAssay data set” (2004).
Active and inactive are the calls of the source.

Tests used:
cells [1] = assay type: functional, cell-based
H4 = assay: Luminescence Cell-Based Dose Response HTS to Identify Activators of 5'UTR Stem-Loop Driven Prion Protein mRNA Translation in H4 Neuroglioblastoma Cells. [Related pubchem assays: 1829 (Project Summary), 1814 (Primary HTS)]; assay type: functional; conditions: Homo sapiens
[2] = Luminescence Cell-Based Dose Response HTS to Identify Activators of Luciferase Translation or Activity in H4 […] Cells. [Related pubchem assays: 1829 (Project Summary), 1814 (Primary HTS)]; assay type: functional
cells [3] = assay type: functional, cell-based; remark: listed apart in the source
[4] = Luminescence Cell-Based Dose Retest to Confirm Inhibitors of Cancer Stem Cells. [Related pubchem assays (depositor defined):AID2717, AID2721]; assay type: functional; conditions: Homo sapiens
[5] = viability loss of HMLE_sh_eGFP cells – cell-based, luminescence, counter-screen for HMLE_sh_ECad selective toxicity project, dose response (AID 463074); assay type: functional, Homo sapiens;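 also: HMLE human mammary epithelial cells expressing control shRNA against eGFP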
[6] = Luminescence Cell-Based Dose Confirmation HTS to Identify Activators of 5'UTR Stem-Loop Driven Alpha-Synuclein mRNA Translation in H4 Neuroglioblastoma Cells. [Related pubchem assays: 1829 (Project Summary), 1814 (Primary HTS)]; assay type: functional
HEK293 [7] = assay: SAR Analysis of small molecule inhibitors of B-cell specific antigen receptor-induced NF-kB activation in a HEK-293T cell line using a luminescence assay - Set 2. [Related pubchem assays (depositor defined):AID435022, AID435025, AID489021]; assay type: functional, cell-based; conditions: Homo sapiens
HEK293 [8] = assay: HEK293T cell viability loss, resazurin readout – resazurin fluorescence, cytotoxicity control for NF-kB activator project, SAR follow-up (AID 493251); assay type: functional, cell-based; conditions: Homo sapiens
Jurkat = assay: SAR Analysis of small molecule inhibitors of […] specific antigen receptor-induced NF-kB activation in a Jurkat cell line using a luminescence assay - Set 3. [Related pubchem assays (depositor defined):AID435022, AID435025, AID465]; assay type: functional, cell-based; conditions: Homo sapiens
[9] = target: Short transient receptor potential channel 6 (Mus musculus, UniProt Q61143); assay: mouse TRPC6 channel blockers, concentration series – HEK293 cells, membrane potential dye, IC50, selectivity assay for selective TRPC4 inhibitor project, dose response (AID 492987); assay type: functional, cell-based
Sequence of Short transient receptor potential channel 6 (Q61143 whole entry): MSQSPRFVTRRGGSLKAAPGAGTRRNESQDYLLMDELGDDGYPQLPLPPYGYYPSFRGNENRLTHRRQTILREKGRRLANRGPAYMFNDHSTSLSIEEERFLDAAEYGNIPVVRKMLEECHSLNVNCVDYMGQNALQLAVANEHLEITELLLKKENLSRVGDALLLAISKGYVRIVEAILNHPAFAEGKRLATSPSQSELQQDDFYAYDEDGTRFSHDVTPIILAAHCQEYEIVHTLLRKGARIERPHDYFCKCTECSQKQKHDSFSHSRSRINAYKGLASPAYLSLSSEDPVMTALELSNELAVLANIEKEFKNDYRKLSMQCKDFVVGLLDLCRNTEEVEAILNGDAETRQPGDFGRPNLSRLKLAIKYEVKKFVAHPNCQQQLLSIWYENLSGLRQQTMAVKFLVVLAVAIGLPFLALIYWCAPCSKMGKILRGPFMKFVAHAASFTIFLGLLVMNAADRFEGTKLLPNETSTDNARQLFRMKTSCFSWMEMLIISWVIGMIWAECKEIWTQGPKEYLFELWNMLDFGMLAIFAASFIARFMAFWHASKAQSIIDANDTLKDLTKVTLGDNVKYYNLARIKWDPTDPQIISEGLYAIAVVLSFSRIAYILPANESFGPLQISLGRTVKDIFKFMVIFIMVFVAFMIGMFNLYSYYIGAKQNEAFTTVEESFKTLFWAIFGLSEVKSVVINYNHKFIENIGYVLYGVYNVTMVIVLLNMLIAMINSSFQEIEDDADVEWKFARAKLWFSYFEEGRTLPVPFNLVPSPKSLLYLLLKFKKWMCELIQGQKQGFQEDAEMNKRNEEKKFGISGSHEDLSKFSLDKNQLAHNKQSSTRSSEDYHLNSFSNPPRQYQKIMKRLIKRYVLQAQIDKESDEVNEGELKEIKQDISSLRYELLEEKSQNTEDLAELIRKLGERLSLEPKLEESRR

[10] = target: T1, Short transient receptor potential channel 4 (Mus musculus, UniProt Q9QUQ5); assay: mouse TRPC4 block via Gq-coupled stimulation – cell-based, acetylcholine stimulus, HEK293 TRPC4, Fluo-4, SAR follow-up (AID 492996); assay type: functional
T1 sequence (Q9QUQ5 whole entry): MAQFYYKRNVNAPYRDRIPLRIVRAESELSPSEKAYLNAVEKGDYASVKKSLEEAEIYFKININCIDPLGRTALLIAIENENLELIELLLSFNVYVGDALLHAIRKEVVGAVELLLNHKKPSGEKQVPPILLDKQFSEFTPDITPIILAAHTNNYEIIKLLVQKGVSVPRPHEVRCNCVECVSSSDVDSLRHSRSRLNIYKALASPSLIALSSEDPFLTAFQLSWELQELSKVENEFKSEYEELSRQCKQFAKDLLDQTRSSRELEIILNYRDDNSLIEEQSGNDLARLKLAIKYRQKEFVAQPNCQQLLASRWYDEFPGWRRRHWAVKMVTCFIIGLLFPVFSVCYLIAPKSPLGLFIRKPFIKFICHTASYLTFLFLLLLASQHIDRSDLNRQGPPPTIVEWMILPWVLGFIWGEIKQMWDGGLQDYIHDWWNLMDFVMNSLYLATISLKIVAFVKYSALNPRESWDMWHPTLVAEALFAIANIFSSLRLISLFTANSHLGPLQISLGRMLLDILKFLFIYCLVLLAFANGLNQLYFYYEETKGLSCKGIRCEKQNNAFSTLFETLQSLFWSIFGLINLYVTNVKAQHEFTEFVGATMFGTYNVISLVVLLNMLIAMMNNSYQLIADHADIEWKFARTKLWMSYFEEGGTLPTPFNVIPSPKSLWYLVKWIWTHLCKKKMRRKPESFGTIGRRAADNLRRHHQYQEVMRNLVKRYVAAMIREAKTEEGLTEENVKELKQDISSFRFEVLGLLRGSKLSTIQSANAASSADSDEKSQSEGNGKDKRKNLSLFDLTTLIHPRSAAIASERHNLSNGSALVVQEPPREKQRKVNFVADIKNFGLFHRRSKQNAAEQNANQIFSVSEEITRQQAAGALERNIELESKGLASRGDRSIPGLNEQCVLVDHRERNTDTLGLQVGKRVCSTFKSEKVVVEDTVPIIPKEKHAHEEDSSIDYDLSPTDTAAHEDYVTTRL

[11] = target: T1, Short transient receptor potential channel 4; assay: SAR Analysis for the identification of selective inhibits of the transient receptor potential cation channel C4 (TRPC4): Automated Electrophysiology. [Related pubchem assays (depositor defined):AID2256]; assay type: functional
[12] = target: T1, Short transient receptor potential channel 4; assay: potency of mouse TRPC4 calcium flux blockers – cell-based, HEK293 TRPC4/mu-opioid, DAMGO stimulus, Fluo-4, dose response (AID 492994); assay type: functional

CC(C)c1ccc(NC(=O)CCc2ccccc2)cc1
EC50 (cells [1]): > 350 µM (not active) | EC50 (H4): > 120 µM (inconclusive) | EC50 [2]: 52.1 µM (active) | EC50 (cells [3]): > 350 µM (not active) | AC50 [4]: 6.63 µM (active) | AC50 [5]: 40.5 µM (active) | EC50 [6]: 7.33 µM (active)

CCOc1ccc(-c2nc(CSCC(=O)NCCN3CCCC3)c(C)o2)cc1
IC50 (HEK293 [7]): 28.4 µM (inactive) | IC50 (HEK293 [8]): > 80 µM (inactive) | IC50 (Jurkat): 10.4 µM (active)

Cc1cc(N2CCN(c3ccncc3)CC2)nc2ccccc12
IC50 [9]: 11.4 µM (active) | IC50 [10]: 15.2 µM (active) | IC50 [11]: 8.18 µM (active) | IC50 [12]: 19.9 µM (active)
